Columns and labels:
[1] = system: chloroform-induced arrhythmia in mice; test: Mice chloroform-induced arrhythmia test; type: in vivo, mice of dd strain; settings: oral administration, effective if < 720 pulses/min, Probit method; for ED50: Mus musculus, po, read-out: Antiarrhythmic Activity A: chloroform induced arrhythmia in mice (ED50)
Protocol: The antiarrhythmic activity was examined by arrhythmia test induced with chloroform in mice and by arrhythmia test induced by ligation of dog coronary artery. (A) Mice chloroform-induced arrhythmia test: Using mice of dd strain, weighing 18 to 22 g and fasting and abstaining from water for 4 to 5 hours, an antiarrhythmic effect was evaluated in accordance with the method of Block [Life Science, 28, 2623 (1981)]. That is, after orally administrating each compound, the mice were put in a chloroform atmosphere and taken out after respiratory standstill. Electrocardiogram was measured by the standard limb induction method; in the case when frequent pulse exceeding 720 pulses/min. is continued for 30 seconds or longer, it was judged ineffective and in the case of a heart beat number being less than 720 pulses/min., it was judged effective. ED50 was determined by the Probit method.

[2] = system: coronary artery ligation-induced arrhythmia in dog; test: Dog coronary artery ligation-induced arrhythmia test; type: in vivo, dogs; settings: Canis lupus familiaris, intravenous, 16 h after ligation, effective if 50% or more of total pulses restored to sinus rhythm, dose effective in 50% or more cases, read-out: Antiarrhythmic Activity B: coronary artery ligation induced arrhythmia in dog (MED)
Description: The antiarrhythmic activity was examined by arrhythmia test induced with chloroform in mice and by arrhythmia test induced by ligation of dog coronary artery.
(B) Dog coronary artery ligation-induced arrhythmia test:
Using dogs weighing 7 to 12 kg, coronary artery ligation-induced arryhthmia occurred in accordance with the Harris method [Circulation, 1, 1318 (1950)]. Namely, the left fifth costa was subjected to thoraco-laparotomy.After the pericardium was incised, the left fore descending branch of the coronary artery was exfoliated around the first side branch and ligated. Sixteen hours after, a test compound was intravenously administered to dogs with multiple ventricular arrhythmic pulses being 90% or more than the total pulses. Then, electrocardiogram was recorded without anesthesia under free movement, and a case where 50% or more of the total pulses was restored to sinus rhythm was judged effective.

dd, male mice [3] = test: Acute toxicity test (mortality 7 days after administration); type: in vivo; settings: mortality at 7 days, minimum lethal dosage
Protocol: Groups each consisting of three dd, male mice having body weights of 20±1 g were used, and the compound of the present invention was intraperitoneally administered. Mortality 7 days after the administration was observed and the minimum lethal dosage (MLD) was determined.

dd, male mice [4] = test: as above; type: in vivo; settings: mortality at 7 days, minimum lethal dosage; remark: listed apart in the source

Compound	ED50 [1]	minimal effective dose [2]	Acute Toxicity (MLD) i.p. (dd, male mice [3])	Acute Toxicity (MLD) p.o. (dd, male mice [4])	Antiarrhythmic Activity A: chloroform induced arrhythmia in mice (ED50) [1]
CCN(CC)CCN1C(=O)c2ccccc2C1c1ccccc1N (stereo not drawn) [Compound 1, 3-(2-Aminophenyl)-2-(2-diethylaminoethyl)isoindolin-1-one]	33 mg/kg	1.25 mg/kg	> 100 mg/kg	> 300 mg/kg	–
CN(C)CCCN1C(=O)c2ccccc2C1c1ccccc1N (stereo not drawn) [Compound 2]	> 100 mg/kg	5 mg/kg	> 100 mg/kg	> 300 mg/kg	–
CCN(CC)CCCN1C(=O)c2ccccc2C1c1ccccc1N (stereo not drawn) [Compound 3, 3-(2-Aminophenyl)-2-(3-diethylaminopropyl)isoindolin-1-one]	< 100 mg/kg	2.5 mg/kg	> 100 mg/kg	100 mg/kg	–
CCN(CC)CCCCN1C(=O)c2ccccc2C1c1ccccc1N (stereo not drawn) [Compound 4, 3-(2-Aminophenyl)-2-(4-diethylaminobutyl)isoindolin-1-one]	47 mg/kg	1.25 mg/kg	> 100 mg/kg	200 mg/kg	–
CCCCN(CCCC)CCCN1C(=O)c2ccccc2C1c1ccccc1N (stereo not drawn) [Compound 5, 2-(3-dibutylaminopropyl)-3-(2-aminophenyl)isoindolin-1-one]	35 mg/kg	1.25 mg/kg	25 mg/kg	100 mg/kg	–
CC(C)NCCN1C(=O)c2ccccc2C1c1ccccc1N (stereo not drawn) [Compound 6, 3-(2-Aminophenyl)-2-(2-isopropylaminoethyl)isoindolin-1-one]	36 mg/kg	2.5 mg/kg	> 100 mg/kg	300 mg/kg	–
CCN(CC)CCN1C(=O)c2ccccc2C1c1ccccc1NC (stereo not drawn) [Compound 7, 2-(2-Diethylaminoethyl)-3-(2-methylaminophenyl)isoindolin-1-one]	14 mg/kg	> 2.5 mg/kg	50 mg/kg	50 mg/kg	–
CCN(CC)CCN1C(=O)c2ccccc2C1c1ccccc1N(C)C (stereo not drawn) [Compound 8, 2-(2-Diethylaminoethyl)-3-(2-dimethylaminophenyl)isoindolin-1-one]	36 mg/kg	2.5 mg/kg	50 mg/kg	100 mg/kg	–
CCNc1ccccc1C1c2ccccc2C(=O)N1CCN(CC)CC (stereo not drawn) [Compound 9, 2-(2-Diethylaminoethyl)-3-(2-ethylaminophenyl)isoindolin-1-one]	63 mg/kg	> 5 mg/kg	> 100 mg/kg	200 mg/kg	–
CCN(CC)CCN1C(=O)c2ccccc2C1c1cc(Cl)ccc1N (stereo not drawn) [Compound 11, 3-(2-Amino-5-chlorophenyl)-2-(2-diethylaminoethyl)-isoindolin-1-one]	> 100 mg/kg	5 mg/kg	> 100 mg/kg	> 300 mg/kg	–
CCN(CC)CCN1C(=O)c2ccccc2C1c1c(C)ccc(C)c1N (stereo not drawn) [Compound 17, 3-(2-Amino-3,6-dimethylphenyl)-2-(2-diethylaminoethyl)-isoindolin-1-one]	< 25 mg/kg	–	> 100 mg/kg	300 mg/kg	–
CCN(CC)CCN1C(=O)c2ccccc2C1c1ccc(N(C)C)cc1 (stereo not drawn) [Compound 18, 2-(2-Diethylaminoethyl)-3-(4-dimethylaminophenyl)-isoindolin-1-one]	23 mg/kg	2.5 mg/kg	50 mg/kg	100 mg/kg	–
CCN(CC)CCN1C(=O)c2ccccc2C1c1cc(C)cc(C)c1N (stereo not drawn) [Compound 26, 3-(2-Amino-3,5-dimethylphenyl)-2-(2-diethylaminoethyl)-isoindolin-1-one]	< 25 mg/kg	–	100 mg/kg	200 mg/kg	–
CCN(CC)CCN1C(=O)c2ccccc2C1c1cc(C#N)ccc1N (stereo not drawn) [Compound 31, 3-(2-Amino-5-cyanophenyl)-2-(2-diethylaminoethyl)-isoindolin-1-one]	30 mg/kg	2.5 mg/kg	–	–	19 mg/kg
CCN(CC)CCN1C(=O)c2ccccc2C1c1cc(F)ccc1N (stereo not drawn) [Compound 32, 3-(2-Amino-5-fluorophenyl)-2-(2-diethylaminoethyl)-isoindolin-1-one]	25 to 50 mg/kg	–	> 100 mg/kg	300 mg/kg	–
CCN(CC)CCN1C(=O)c2ccccc2C1c1cccc(C(C)C)c1N (stereo not drawn) [Compound 33, 3-(2-Amino-3-isopropylphenyl)-2-(2-diethylaminoethyl)-isoindolin-1-one]	14 mg/kg	–	50 mg/kg	100 mg/kg	–
CCN1CCCC1CN1C(=O)c2ccccc2C1c1cc(C#N)ccc1N (stereo not drawn) [Compound 35]	50 to 100 mg/kg	–	> 100 mg/kg	> 300 mg/kg	–
CC(C)NCCN1C(=O)c2ccccc2C1c1cc(C#N)ccc1N (stereo not drawn) [Compound 36, 3-(2-Amino-5-cyanophenyl)-2-(2-isopropylaminoethyl)-isoindolin-1-one]	50 to 100 mg/kg	–	> 100 mg/kg	> 300 mg/kg	–
CCNCCN1C(=O)c2ccccc2C1c1cc(C#N)ccc1N (stereo not drawn) [Compound 38, 3-(2-Amino-5-cyanophenyl)-2-(2-ethylaminoethyl)-isoindolin-1-one]	50 mg/kg	5 mg/kg	> 100 mg/kg	> 300 mg/kg	–

— patent US4849441A, “Isoindolin-1-one derivative and antiarrhythmic agent” (Kyowa Hakko Kogyo Co., Ltd., priority 1986, dated 1989)
